The source made the active and inactive calls. No cut-off for these calls is given here.
Experiments:
[1] = tested on: Paracentrotus lividus; experiment: Microtubule destabilizing activity in sea urchin free-swimming blastula assessed as embryo spinning treated at 9 to 10 hrs post-fertilization measured after 0.15 to 15 hrs; assay type: functional
[2] = tested on: Paracentrotus lividus; experiment: Antimitotic activity in sea urchin fertilized egg assessed as cleavage arrest treated at 8 to 20 mins post-fertilization measured at 2.5 to 5.5 hrs post-fertilization; assay type: functional
[3] = tested on: Paracentrotus lividus; experiment: Antimitotic activity in sea urchin fertilized egg assessed as cleavage alteration treated at 8 to 20 mins post-fertilization measured at 2.5 to 5.5 hrs post-fertilization; assay type: functional
[4] = tested on: Paracentrotus lividus; experiment: Microtubule destabilizing activity in sea urchin free-swimming blastula assessed as embryo spinning up to 4 uM treated at 9 to 10 hrs post-fertilization measured after 0.15 to 15 hrs; assay type: functional, organism-based

Structure (SMILES)	EC [1] [µM]	EC [2] [µM]	EC [3] [µM]	Activity [4]
COc1ccc(-c2c(NC(C)=O)noc2-c2cc(OC)c(OC)c(OC)c2)cc1	>4	>4	>4	–
COc1ccc(CCc2noc(-c3cc(OC)c4c(c3)OCCO4)n2)cc1	–	–	–	inactive
COc1ccc(-c2noc(N)c2-c2cc(OC)c3c(c2OC)OCO3)cc1	>4	>4	4	–
COc1ccc(-c2noc(N)c2-c2ccc(Cl)cc2)cc1	>4	>4	>4	–
COc1ccc(-c2onc(N)c2-c2cc(OC)c(OC)c(OC)c2)cc1	0.2	0.02	0.004	–
COc1ccc(-c2noc(N)c2-c2cc(OC)c(OC)c(OC)c2)cc1	0.1	0.01	0.002	–
COc1ccc(-c2onc(N)c2-c2cc(OC)c3c(c2OC)OCO3)cc1	>4	>4	>4	–
COc1ccc(-c2c(NC(C)=O)noc2-c2cc3c(c(OC)c2OC)OCO3)cc1	>4	>4	>4	–
COc1ccc(-c2c(-c3cc(OC)c(OC)c(OC)c3)noc2N(C(C)=O)C(C)=O)cc1	1	0.2	0.05	–
COc1ccc(-c2nc(CCc3cc(OC)c(OC)c(OC)c3)no2)cc1	–	–	–	inactive
COc1ccc(-c2c(-c3cc(OC)c4c(c3OC)OCO4)noc2N(C(C)=O)C(C)=O)cc1	5	2	0.5	–
COc1ccc(Cc2noc(-c3ccc([N+](=O)[O-])cc3)n2)cc1	–	–	–	inactive
COc1ccc(Cc2noc(-c3cc(OC)c4c(c3)OCO4)n2)cc1	–	–	–	inactive
COc1ccc(-c2c(NC(C)=O)noc2-c2cc(OC)c3c(c2OC)OCO3)cc1	>4	>4	>4	–
COc1ccc(-c2onc(NC(C)=O)c2-c2ccc([N+](=O)[O-])cc2)cc1	>4	>4	>4	–
COc1ccc(-c2onc(NC(C)=O)c2-c2ccc(Cl)cc2)cc1	>4	>4	>4	–
COc1ccc(Cc2noc(-c3cc(OC)c4c(c3OC)OCO4)n2)cc1	–	–	–	inactive

Reference: ChEMBL document CHEMBL3112491, “3-(5-)-Amino-o-diarylisoxazoles: regioselective synthesis and antitubulin activity” (2014)
